Experiment in all cases: Inhibition Assay
The target of assay [1] is Cyclin-dependent kinase 2 (Homo sapiens, UniProt P24941). The settings on record: pH 8; 22 °C. The source says:
(§1) Inhibition assay using CDK and selective kinases such as gsk3, EGFR, c-Kit, InsR and KDR.

Assay [2] has as its target Epidermal growth factor receptor (Homo sapiens, UniProt P00533). The settings on record: pH 7; 22 °C.
Description: as §1

For assay [3], the target named is Vascular endothelial growth factor receptor 2 (Homo sapiens, UniProt P35968). The settings on record: pH 7; 22 °C.
Description: as §1

Assay [4] deals with Insulin receptor (Homo sapiens, UniProt P06213). The following applies: pH 7.5; 22 °C.
Description: as §1

One may read the IC50 as the point on the concentration scale where inhibition reaches its midpoint.

Molecules are shown by their SMILES. Where “and” joins values, the source holds several entries; their conditions need not be identical. Equal values may be shown once.

Vascular endothelial growth factor receptor 2, sequence (P35968 whole entry): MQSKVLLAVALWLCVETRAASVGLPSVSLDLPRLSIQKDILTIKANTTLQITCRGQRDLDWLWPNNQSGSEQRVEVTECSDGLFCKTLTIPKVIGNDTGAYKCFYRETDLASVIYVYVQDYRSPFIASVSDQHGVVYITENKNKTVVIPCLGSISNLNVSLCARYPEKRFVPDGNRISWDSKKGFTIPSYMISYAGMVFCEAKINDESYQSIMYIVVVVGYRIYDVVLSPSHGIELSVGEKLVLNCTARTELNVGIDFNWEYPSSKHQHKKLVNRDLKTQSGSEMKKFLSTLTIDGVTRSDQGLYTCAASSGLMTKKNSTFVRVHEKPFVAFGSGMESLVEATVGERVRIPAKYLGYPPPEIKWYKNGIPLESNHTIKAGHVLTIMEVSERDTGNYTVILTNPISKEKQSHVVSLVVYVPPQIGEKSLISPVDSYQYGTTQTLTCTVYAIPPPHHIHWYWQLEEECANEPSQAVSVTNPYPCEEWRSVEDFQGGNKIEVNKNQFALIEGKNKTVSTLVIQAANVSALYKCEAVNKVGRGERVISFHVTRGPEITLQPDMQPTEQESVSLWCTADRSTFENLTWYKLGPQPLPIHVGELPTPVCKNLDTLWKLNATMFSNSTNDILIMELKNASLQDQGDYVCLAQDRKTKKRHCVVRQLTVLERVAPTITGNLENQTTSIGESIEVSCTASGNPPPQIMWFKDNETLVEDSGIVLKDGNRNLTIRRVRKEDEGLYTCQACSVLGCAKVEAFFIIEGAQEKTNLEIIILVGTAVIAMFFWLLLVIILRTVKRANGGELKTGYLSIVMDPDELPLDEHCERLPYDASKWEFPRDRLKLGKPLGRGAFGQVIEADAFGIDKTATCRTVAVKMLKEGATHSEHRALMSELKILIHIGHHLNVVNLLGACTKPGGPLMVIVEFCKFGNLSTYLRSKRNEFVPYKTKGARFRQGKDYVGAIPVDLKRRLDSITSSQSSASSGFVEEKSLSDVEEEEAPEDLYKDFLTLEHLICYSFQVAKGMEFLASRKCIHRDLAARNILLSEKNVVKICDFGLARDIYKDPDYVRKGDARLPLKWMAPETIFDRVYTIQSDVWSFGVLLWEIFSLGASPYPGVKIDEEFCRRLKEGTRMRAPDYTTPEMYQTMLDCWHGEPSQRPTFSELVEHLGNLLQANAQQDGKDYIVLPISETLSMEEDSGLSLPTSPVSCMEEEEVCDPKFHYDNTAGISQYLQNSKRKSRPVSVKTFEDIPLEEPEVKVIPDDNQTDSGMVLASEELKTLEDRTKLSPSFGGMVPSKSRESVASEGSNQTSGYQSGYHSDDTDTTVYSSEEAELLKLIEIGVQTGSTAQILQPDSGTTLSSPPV
Insulin receptor, sequence (P06213 28-758 limits assumed): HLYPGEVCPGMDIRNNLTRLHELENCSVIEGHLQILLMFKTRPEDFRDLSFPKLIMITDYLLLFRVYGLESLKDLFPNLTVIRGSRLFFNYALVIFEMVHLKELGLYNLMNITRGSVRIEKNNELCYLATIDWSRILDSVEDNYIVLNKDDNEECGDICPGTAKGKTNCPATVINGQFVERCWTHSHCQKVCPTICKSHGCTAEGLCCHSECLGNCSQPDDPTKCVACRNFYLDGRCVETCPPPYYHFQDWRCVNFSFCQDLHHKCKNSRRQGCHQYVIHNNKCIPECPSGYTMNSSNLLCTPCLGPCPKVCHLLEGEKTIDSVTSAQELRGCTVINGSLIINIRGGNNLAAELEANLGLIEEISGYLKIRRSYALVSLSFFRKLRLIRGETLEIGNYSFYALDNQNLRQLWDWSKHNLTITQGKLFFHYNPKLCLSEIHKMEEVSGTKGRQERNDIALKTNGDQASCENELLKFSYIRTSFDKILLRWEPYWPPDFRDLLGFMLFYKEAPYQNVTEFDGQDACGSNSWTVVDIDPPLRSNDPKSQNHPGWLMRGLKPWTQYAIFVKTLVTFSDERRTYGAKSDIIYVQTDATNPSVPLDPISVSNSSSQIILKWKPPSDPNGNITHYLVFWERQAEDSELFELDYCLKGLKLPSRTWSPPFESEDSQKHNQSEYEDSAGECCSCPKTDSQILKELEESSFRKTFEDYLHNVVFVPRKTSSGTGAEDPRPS
Insulin receptor, sequence (P06213 763-1382 limits assumed): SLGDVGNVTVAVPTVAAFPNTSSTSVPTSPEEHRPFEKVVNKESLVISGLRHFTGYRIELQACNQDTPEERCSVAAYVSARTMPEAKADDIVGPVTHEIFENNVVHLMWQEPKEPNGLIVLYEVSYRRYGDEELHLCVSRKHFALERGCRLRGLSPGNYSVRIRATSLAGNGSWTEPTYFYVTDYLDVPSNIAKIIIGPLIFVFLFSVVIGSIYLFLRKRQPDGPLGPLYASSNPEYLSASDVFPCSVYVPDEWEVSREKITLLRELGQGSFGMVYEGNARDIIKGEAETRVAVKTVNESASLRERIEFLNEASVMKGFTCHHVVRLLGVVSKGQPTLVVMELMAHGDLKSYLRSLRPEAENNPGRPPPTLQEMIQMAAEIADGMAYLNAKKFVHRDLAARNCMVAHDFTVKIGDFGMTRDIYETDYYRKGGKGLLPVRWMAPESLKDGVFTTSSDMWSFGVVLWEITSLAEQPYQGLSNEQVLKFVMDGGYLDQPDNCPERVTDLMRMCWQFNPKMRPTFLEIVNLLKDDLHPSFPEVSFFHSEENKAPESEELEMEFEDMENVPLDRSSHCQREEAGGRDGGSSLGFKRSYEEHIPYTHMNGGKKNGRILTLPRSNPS
Epidermal growth factor receptor, sequence (P00533 whole entry): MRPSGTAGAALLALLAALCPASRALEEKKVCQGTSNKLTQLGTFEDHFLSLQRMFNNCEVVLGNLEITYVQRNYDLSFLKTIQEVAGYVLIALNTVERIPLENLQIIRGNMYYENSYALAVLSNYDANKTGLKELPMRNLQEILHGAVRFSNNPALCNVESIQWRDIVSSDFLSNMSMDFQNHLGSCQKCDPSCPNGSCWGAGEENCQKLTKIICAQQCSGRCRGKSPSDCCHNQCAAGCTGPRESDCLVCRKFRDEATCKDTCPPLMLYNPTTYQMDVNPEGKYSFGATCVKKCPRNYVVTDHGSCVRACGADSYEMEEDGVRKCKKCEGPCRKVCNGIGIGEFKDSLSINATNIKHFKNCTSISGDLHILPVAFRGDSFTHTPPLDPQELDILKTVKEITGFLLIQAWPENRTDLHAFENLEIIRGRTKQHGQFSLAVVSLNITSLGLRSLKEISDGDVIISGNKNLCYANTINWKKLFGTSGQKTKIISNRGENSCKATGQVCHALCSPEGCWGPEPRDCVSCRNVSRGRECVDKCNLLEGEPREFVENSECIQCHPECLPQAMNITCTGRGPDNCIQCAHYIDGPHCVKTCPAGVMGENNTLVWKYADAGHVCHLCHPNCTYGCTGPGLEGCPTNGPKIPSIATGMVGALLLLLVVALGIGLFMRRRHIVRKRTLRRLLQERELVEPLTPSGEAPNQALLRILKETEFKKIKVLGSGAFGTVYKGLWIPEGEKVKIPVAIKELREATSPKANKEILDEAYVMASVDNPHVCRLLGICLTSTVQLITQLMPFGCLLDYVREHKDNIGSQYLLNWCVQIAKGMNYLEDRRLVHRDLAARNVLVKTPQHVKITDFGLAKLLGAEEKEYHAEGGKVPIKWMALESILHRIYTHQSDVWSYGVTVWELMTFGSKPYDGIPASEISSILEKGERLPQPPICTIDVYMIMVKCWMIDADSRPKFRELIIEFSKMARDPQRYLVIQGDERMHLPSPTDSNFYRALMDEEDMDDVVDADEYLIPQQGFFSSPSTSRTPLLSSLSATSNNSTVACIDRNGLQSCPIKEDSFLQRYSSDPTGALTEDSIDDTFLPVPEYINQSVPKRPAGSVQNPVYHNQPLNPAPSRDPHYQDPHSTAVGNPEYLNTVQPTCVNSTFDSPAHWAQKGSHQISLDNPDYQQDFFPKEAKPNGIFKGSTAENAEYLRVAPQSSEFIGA

For `CC1(O)C(C2C(=O)Nc3ccc(Br)cc32)=Nc2ccccc21` (stereo unspecified) [Indirubin derivative, 26], the midpoint of inhibition in assay [1], the IC50, lay at 3 µM. With `O=C1Nc2ccc(S(=O)(=O)O)cc2C1=C1Nc2ccccc2C1=O` [Indirubin derivative, 20], the half-maximal inhibitory concentration (IC50) in assay [2], in assay [3] and in assay [4] was over 10 µM each time. In turn, `CN(C)C1CCN(S(=O)(=O)c2ccc3c(c2)C(=C2Nc4ccccc4C2=O)C(=O)N3)CC1` [Indirubin derivative, 36 (X=O)] had an IC50 in assay [1] of 0.02 µM. Still for that read-out and setting: then `CN(C)CCN(C)S(=O)(=O)c1ccc2c(c1)C(=C1Nc3ccccc3C1=O)C(=O)N2` [Indirubin derivative, 22], with 0.01 µM. For the molecule `O=C1Nc2ccc(Br)cc2C1=C1Nc2ccccc2C1=O`, the IC50 in assay [2], in assay [3] and in assay [4] was over 10 µM throughout.

`CN(C[C@H](O)[C@@H](O)[C@H](O)[C@H](O)CO)S(=O)(=O)c1ccc2c(c1)C(=C1Nc3ccccc3C1=O)C(=O)N2` [Indirubin derivative, 35]: in assay [1], the IC50 was 0.45 µM. On to `O=C1Nc2ccc(S(=O)(=O)NCCO)cc2C1=C1Nc2ccccc2C1=O` [Indirubin derivative, 33], for which, in assay [1], the IC50 was 0.08 µM.

In the case of `CN(C)CCN(C)S(=O)(=O)c1ccc2c(c1)C(C1=Nc3ccccc3C1(C)O)C(=O)N2` (stereo unspecified) [Indirubin derivative, 28b], the IC50 in assay [2], in assay [3] and in assay [4] was over 10 µM throughout. As for `CN(C)S(=O)(=O)c1ccc2c(c1)/C(=C1/Nc3ccccc3/C1=N\OCCO[C@@H]1O[C@H](CO)[C@@H](O)[C@H](O)[C@H]1O)C(=O)N2` [Indirubin derivative, 36 (X=NO)], in assay [1], inhibition was half-maximal at 0.08 µM (IC50). Molecule `CC1(O)C(C2C(=O)Nc3ccc(S(=O)(=O)N4CCC(O)CC4)cc32)=Nc2ccccc21` (stereo unspecified) [Indirubin derivative, 37] displayed an IC50 in assay [1] of 1.6 µM. For the molecule `CN(C)CCN(C)S(=O)(=O)c1ccc2c(c1)C(c1[nH]c3ccccc3c1N=O)C(=O)N2` (stereo unspecified) [Indirubin derivative, 23], it took 0.04 µM to reach half-maximal inhibition in assay [1] (IC50). Same read-out and setting: the figure for `O=C1Nc2ccccc2/C1=C1/Nc2ccccc2C1=O` [2-[(3Z)-2-oxo-2,3-dihydro-1H-indol-3-ylidene]-2,3-dihydro-1H-indol-3-one] is 2 µM.

In assay [1], `CN(C)CCN(C)S(=O)(=O)c1ccc2c(c1)/C(=C1/Nc3ccccc3/C1=N\OCCO[C@@H]1O[C@H](CO)[C@@H](O)[C@H](O)[C@H]1O)C(=O)N2` [Indirubin derivative, 25] displayed an IC50 of 0.09 µM.

Consider `C=CCC1(O)C(C2C(=O)Nc3ccc(S(=O)(=O)N(C)CCN(C)C)cc32)=Nc2ccccc21` (stereo unspecified) [Indirubin derivative, 30b], for which the IC50 in assay [2], in assay [3] and in assay [4] was over 10 µM each time.

Consider `O=C(O)CCNS(=O)(=O)c1ccc2c(c1)C(=C1Nc3ccccc3C1=O)C(=O)N2` [Indirubin derivative, 34], for which the IC50 in assay [1] was determined as 1.5 µM. Same read-out and setting: then `CN(C)S(=O)(=O)c1ccc2c(c1)C(=C1Nc3ccccc3C1=O)C(=O)N2` [Indirubin derivative, 8], with 0.04 µM; and `CN(C)S(=O)(=O)c1ccc2c(c1)C(C1=Nc3ccccc3C1(C)O)C(=O)N2` (stereo unspecified) [Indirubin derivative, 27b], with 0.07 µM and 0.6 µM; and `CN(C)S(=O)(=O)c1ccc2c(c1)C(C1=Nc3ccccc3C1(O)C(O)CO)C(=O)N2` (stereo unspecified) [Indirubin derivative, 31b], with 3 µM and > 10 µM.

Values taken from BindingDB's records for doi:10.1002/cbic.200400108 (Schering, 2005).
